# In patent US20240294534A1, “IMIDAZOTRIAZINE DERIVATIVES AS IL-17 MODULATORS” (UCB BIOPHARMA SRL, priority 2021, published 2024):
# Molecular target: T1, IL-17A (Homo sapiens, UniProt Q16552)
# T1 sequence (Q16552 24-155): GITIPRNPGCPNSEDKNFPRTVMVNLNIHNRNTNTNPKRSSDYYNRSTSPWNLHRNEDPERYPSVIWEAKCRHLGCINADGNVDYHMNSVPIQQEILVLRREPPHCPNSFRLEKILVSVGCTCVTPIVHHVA
# Assay: Inhibition of IL-17A induced IL-6 release from dermal fibroblast cell line (HDF cell line assay)
# Type: cell-based
# Conditions: human dermal fibroblasts stimulated with IL-17A (50 pM) + TNF-α (25 pM); IL-6 measured by HTRF; pIC50 = -log10[IC50], IC50 molar
# Source text: Inhibition of IL-17A Induced IL-6 Release from Dermal Fibroblast Cell Line
# The purpose of this assay is to test the neutralising ability to IL-17 proteins, in a human primary cell system. Stimulation of normal human dermal fibroblasts (HDF) with IL-17 alone produces only a very weak signal but in combination with certain other cytokines, such as TNFα, a synergistic effect can be seen in the production of inflammatory cytokines, i.e. IL-6.
# HDFs were stimulated with IL-17A (50 pM) in combination with TNF-α (25 pM). The resultant IL-6 response was then measured using a homogenous time-resolved FRET kit from Cisbio. The kit utilises two monoclonal antibodies, one labelled with Eu-Cryptate (Donor) and the second with d2 or XL665 (Acceptor). The intensity of the signal is proportional to the concentration of IL-6 present in the sample (Ratio is calculated by 665/620×104).
# The ability of a compound to inhibit IL-17 induced IL-6 release from human dermal fibroblasts is measured in this assay.
# HDF cells (Sigma #106-05n) were cultured in complete media (DMEM+10% FCS+2 mM L-glutamine) and maintained in a tissue culture flask using standard techniques. Cells were harvested from the tissue culture flask on the morning of the assay using TrypLE (Invitrogen #12605036). The TrypLE was neutralised using complete medium (45 mL) and the cells were centrifuged at 300×g for 3 minutes. The cells were re-suspended in complete media (5 mL) counted and adjusted to a concentration of 3.125×10^4 cells/mL before being added to the 384 well assay plate (Corning #3701) at 40 μL per well. The cells were left for a minimum of three hours, at 37° C./5% CO2, to adhere to the plate.
# Compounds were serially diluted in DMSO before receiving an aqueous dilution into a 384 well dilution plate (Greiner #781281), where 5 μL from the titration plate was transferred to 45 μL of complete media and mixed to give a solution containing 10% DMSO.
# Mixtures of TNFα and IL-17 cytokine were prepared in complete media to final concentrations of TNFα 25 pM/IL-17A 50 pM, then 30 μL of the solution was added to a 384 well reagent plate (Greiner #781281).
# 10 μL from the aqueous dilution plate was transferred to the reagent plate containing 30 μL of the diluted cytokines, to give a 2.5% DMSO solution. The compounds were incubated with the cytokine mixtures for 5 h at 37° C. After the incubation, 10 μL was transferred to the assay plate, to give a 0.5% DMSO solution, then incubated for 18-20 h at 37° C./5% CO2.
# From the Cisbio IL-6 FRET kit (Cisbio #62IL6PEB) europium cryptate and Alexa 665 were diluted in reconstitution buffer and mixed 1:1, as per kit insert. To a white low volume 384 well plate (Greiner #784075) were added FRET reagents (10 μL), then supernatant (10 μL) was transferred from the assay plate to Greiner reagent plate. The mixture was incubated at room temperature for 3 h with gentle shaking (<400 rpm) before being read on a Synergy Neo 2 plate reader (Excitation: 330 nm; Emission: […]).
row,Compound,IC50 [nM]
1,"O=C(N[C@H](c1cn2ncc(C3CS(=O)(=O)CCN3C(=O)C34CC(F)(C3)C4)nc2n1)[C@H]1CC[C@H](C(F)(F)F)CC1)OCc1ccccc1 (stereo partly drawn) [Example 13, Benzyl N—[(S)-{3-[4-(3-fluorobicyclo[1.1.1]pentane-1-carbonyl)-1,1-dioxo-1,4-thiazinan-3-yl]imidazo[1,2-b][1,2,4]triazin-6-yl}[4-(trifluoromethyl)cyclohexyl]methyl]carbamate]",50.1
2,"CC(C)n1ncnc1C(=O)N[C@H](c1cn2ncc([C@H]3C[C@@](C)(O)CCN3C(=O)[C@@H]3CCC(F)(F)CO3)nc2n1)C1CCC(F)(F)CC1 (single isomer, unassigned) [Example 53]",501
3,"Cc1nonc1C(=O)N[C@H](c1cn2ncc([C@H]3COCCN3C(=O)C34CC(F)(C3)C4)nc2n1)C1CCC(F)(F)CC1 (single isomer, unassigned) [Example 4]",631
4,"Cc1nonc1C(=O)N[C@H](c1cn2ncc([C@@H]3C[C@@](O)(C(F)F)CCN3C(=O)[C@@H]3CCC(F)(F)CO3)nc2n1)C1CCC(F)(F)CC1 (single isomer, unassigned) [Example 22]",6.31
5,"Cc1nonc1C(=O)N[C@H](c1cn2ncc([C@H]3C[C@H](O)CCN3C(=O)[C@@H]3CCC(F)(F)CO3)nc2n1)C1CCC(F)(F)CC1 (single isomer, unassigned) [Example 45]",3.98
6,"Cc1nonc1C(=O)N[C@H](c1cn2ncc([C@@H]3COCCN3C(=O)[C@@H]3CCC(F)(F)CO3)nc2n1)C(C1CC1)C1CC1 (single isomer, unassigned) [Example 5]",3.98
7,"Cc1nonc1C(=O)N[C@H](c1cn2ncc(C3(C(=O)NCC(C)(F)F)CCOCC3)nc2n1)C1CCC(F)(F)CC1 [Example 17, N—[(S)-(4,4-Difluorocyclohexyl){3-[4-(2,2-difluoropropylcarbamoyl)tetrahydropyran-4-yl]imidazo[1,2-b][1,2,4]triazin-6-yl}methyl]-4-methyl-1,2,5-oxadiazole-3-carboxamide]",12.6
8,"Cc1nonc1C(=O)N[C@H](c1cn2ncc([C@H]3C[C@@](C)(O)CCN3C(=O)[C@@H]3CCC(F)(F)CO3)nc2n1)C1CCC(F)(F)CC1 (single isomer, unassigned) [Example 35]",126
9,"O=C([C@@H]1CCC(F)(F)CO1)N1CC[C@@](O)(C(F)(F)F)C[C@@H]1c1cnn2cc([C@@H](NC(=O)C3(F)CC3)C3CCC(F)(F)CC3)nc2n1 (single isomer, unassigned) [Example 21]",398
10,"Cc1nonc1C(=O)N[C@H](c1cn2ncc(C3(C(=O)NCC(C)(F)F)CCN(C4COC4)CC3)nc2n1)C1CCC(F)(F)CC1 [Example 56, N—[(S)-(4,4-Difluorocyclohexyl){3-[4-(2,2-difluoropropylcarbamoyl)-1-(oxetan-3-yl)-piperidin-4-yl]imidazo[1,2-b][1,2,4]triazin-6-yl}methyl]-4-methyl-1,2,5-oxadiazole-3-carboxamide]",15.8
11,"Cc1nonc1C(=O)N[C@H](c1cn2ncc([C@@H]3C[C@@](C)(O)CCN3C(=O)C34CC(F)(C3)C4)nc2n1)C1CCC(F)(F)CC1 (single isomer, unassigned) [Example 40]",79.4
12,"Cn1nccc1C(=O)N[C@H](c1cn2ncc([C@H]3C[C@](O)(C(F)F)CCN3C(=O)[C@@H]3CCC(F)(F)CO3)nc2n1)C1CCC(F)(F)CC1 (single isomer, unassigned) [Example 47]",631
13,"O=C(N[C@H](c1cn2ncc([C@H]3C[C@](O)(C(F)(F)F)CCN3C(=O)C34CC(F)(C3)C4)nc2n1)C1CCC(F)(F)CC1)C1(F)CC1 (single isomer, unassigned) [Example 12]",7940
14,"Cc1nonc1C(=O)N[C@H](c1cn2ncc([C@@H]3C[C@](O)(C(F)(F)F)CCN3C(=O)C34CC(F)(C3)C4)nc2n1)C1CCC(F)(F)CC1 (single isomer, unassigned) [Example 32]",63.1
15,"Cc1nonc1C(=O)N[C@H](c1cn2ncc([C@H]3C[C@@](O)(C(F)F)CCN3C(=O)C34CC(F)(C3)C4)nc2n1)C1CCC(F)(F)CC1 (single isomer, unassigned) [Example 29]",631
16,"Cc1nonc1C(=O)N[C@H](c1cn2ncc([C@@H]3C[C@@H](O)CCN3C(=O)[C@@H]3CCC(F)(F)CO3)nc2n1)C1CCC(F)(F)CC1 (single isomer, unassigned) [Example 44]",126
17,"Cc1nonc1C(=O)N[C@H](c1cn2ncc([C@@H]3C[C@@](O)(C(F)(F)F)CCN3C(=O)C34CC(F)(C3)C4)nc2n1)C(C1CC1)C1CC1 (single isomer, unassigned) [Example 1]",7.94
18,"Cc1nonc1C(=O)N[C@H](c1cn2ncc([C@@H]3C[C@@](C)(O)CCN3C(=O)[C@@H]3CCC(F)(F)CO3)nc2n1)C1CCC(F)(F)CC1 (single isomer, unassigned) [Example 38]",126
19,"Cc1nonc1C(=O)N[C@H](c1cn2ncc(C3(C(=O)N4CC(F)(F)C(F)(F)C4)CCN(C4COC4)CC3)nc2n1)C1CCC(F)(F)CC1 [Example 54, N—[(S)-(4,4-Difluorocyclohexyl){3-[1-(oxetan-3-yl)-4-(3,3,4,4-tetrafluoropyrrolidine-1-carbonyl)piperidin-4-yl]imidazo[1,2-b][1,2,4]triazin-6-yl}methyl]-4-methyl-1,2,5-oxadiazole-3-carboxamide]",7.94
20,"Cc1nonc1C(=O)N[C@H](c1cn2ncc(C3(C(=O)N4CC(C(F)(F)F)C4)CCN(C4COC4)CC3)nc2n1)C1CCC(F)(F)CC1 [Example 55, N—[(S)-(4,4-Difluorocyclohexyl)(3-{1-(oxetan-3-yl)-4-[3-(trifluoromethyl)azetidine-1-carbonyl]piperidin-4-yl}imidazo[1,2-b][1,2,4]triazin-6-yl)methyl]-4-methyl-1,2,5-oxadiazole-3-carboxamide]",63.1
21,"Cc1nonc1C(=O)N[C@H](c1cn2ncc([C@H]3C[C@](O)(C(F)(F)F)CCN3C(=O)C34CC(F)(C3)C4)nc2n1)C(C1CC1)C1CC1 (single isomer, unassigned) [Example 2]",158
22,"CC(C)n1ncnc1C(=O)N[C@H](c1cn2ncc([C@H]3C[C@@H](O)CCN3C(=O)[C@@H]3CCC(F)(F)CO3)nc2n1)C1CCC(F)(F)CC1 (single isomer, unassigned) [Example 51]",251
23,"Cc1nonc1C(=O)N[C@H](c1cn2ncc([C@H]3C[C@](O)(C(F)F)CCN3C(=O)C34CC(F)(C3)C4)nc2n1)C1CCC(F)(F)CC1 (single isomer, unassigned) [Example 27]",251
24,"Cc1nonc1C(=O)N[C@H](c1cn2ncc([C@H]3C[C@](O)(C(F)(F)F)CCN3C(=O)[C@@H]3CCC(F)(F)CO3)nc2n1)C1CCC(F)(F)CC1 (single isomer, unassigned) [Example 19]",100
25,"CC(C)n1ncnc1C(=O)N[C@H](c1cn2ncc([C@H]3C[C@@H](O)CCN3C(=O)[C@@H]3CCC(F)(F)CO3)nc2n1)C1CCC(F)(F)CC1 (single isomer, unassigned) [Example 50]",12.6
26,"Cc1nonc1C(=O)N[C@H](c1cn2ncc([C@H]3C[C@](C)(O)CCN3C(=O)C34CC(F)(C3)C4)nc2n1)C1CCC(F)(F)CC1 (single isomer, unassigned) [Example 41]",794
27,"Cc1nonc1C(=O)N[C@H](c1cn2ncc([C@H]3C[C@](O)(C(F)(F)F)CCN3C(=O)C34CC(F)(C3)C4)nc2n1)C1CCC(F)(F)CC1 (single isomer, unassigned) [Example 10]",501
28,"Cc1nonc1C(=O)N[C@H](c1cn2ncc([C@@H]3C[C@@](O)(C(F)F)CCN3C(=O)C34CC(F)(C3)C4)nc2n1)C1CCC(F)(F)CC1 (single isomer, unassigned) [Example 26]",10
29,"Cc1nonc1C(=O)N[C@H](c1cn2ncc([C@@H]3C[C@](C)(O)CCN3C(=O)C34CC(F)(C3)C4)nc2n1)C1CCC(F)(F)CC1 (single isomer, unassigned) [Example 36]",12.6
